From US8846704B2, “Thiopyrimidine-based compounds and uses thereof” (YM Biosciences Austraila Pty Ltd, priority 2007, dated 2014)

How the values were obtained:
CTLL2 = experiment: Cellular screening, CTLL2 cells, Alamar Blue; type: cell-based; conditions: Mus musculus, CTLL-2, read-out: CTLL2 IC50_nM
Summary of the method: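 Viability is read with Alamar Blue at 544 nm, the dye added for the final 4-6 hours. Compounds were incubated for 40 hr with CTLL2 cells taken from late-log-phase culture, at 37° C in 5% CO2.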

[1] = target: T1, BaF3 TELJAK2 cells (BafT_J2) (Homo sapiens, UniProt O60674); experiment: Cellular screening, BaF3 TEL:JAK2 cells, Alamar Blue; type: cell-based; conditions: 40 hr, read-out: BafT_J2 IC50_nM
T1 construct: fused on or other part: TEL (ETV6) N-terminal part, coding nucleotides 1-487, serves as the oligomerising partner; It is fused through a Sal I site to the JAK2 kinase domain and expressed from pTRE2 in BaF3 cells bearing pTET-off; P41212 (Transcription factor ETV6)
Summary of the method: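 Tet-off BaF3 cells carrying a TEL (nt 1-487)–JAK2 kinase-domain fusion, grown factor-independently in DMEM with 10% Tet-approved FBS without WEHI 3B medium. Compounds were diluted to 20 μM in screening plates, and cells (50,000–200,000 cell/mL at 1.1×) were incubated 40 hr at 37 °C, 5% CO2. Alamar Blue was then added for 4-6 hours; read at 544 nm.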

BaF3 wild-type cells = experiment: Cellular screening, BaF3 wild-type cells, Alamar Blue; type: cell-based; conditions: Mus musculus, 40 hr, read-out: BAF3wt IC50_nM
Summary of the method: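 Compounds, screened from dilution plates at 20 μM, were added as 10× final stocks to cells grown in DMEM/10% FCS/10% WEHI 3B conditioned medium. Cells were seeded at 1.1× final (50,000–200,000 cells/mL) and incubated 40 hr at 37° C, 5% CO2. Viability was read at 544 nm after a further 4–6 hours with Alamar Blue.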

human JAK3 = target: T2, human JAK3 (Homo sapiens, UniProt P52333); experiment: Alphascreen tyrosine kinase enzyme assay, JAK3 kinase domain; type: biochemical; conditions: read-out: JAK3 IC50_nM
T2 construct: The kinase domain of human JAK3 was amplified; GST (N); made in house; host or cells: Sf9 insect cells (baculovirus)
Summary of the method: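 GST-affinity-purified human JAK3 kinase domain (baculovirus/Sf9) was pre-incubated 20 min with compound ([…]) in HEPES pH 7.5 buffer with MgCl2, vanadate and Tween 20. Biotinylated peptide substrate ([…]) and ATP were then added; phosphotyrosine was detected by AlphaScreen PY100 acceptor and streptavidin donor beads after 2–3 h.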

human JAK2 = target: T3, human JAK2 (Homo sapiens, UniProt O60674); experiment: Alphascreen tyrosine kinase enzyme assay, JAK2 kinase domain; type: biochemical; conditions: read-out: JAK2 IC50_nM
T3 construct: The kinase domain of human JAK2 was amplified; GST (N); made in house; host or cells: Sf9 insect cells (baculovirus)
Summary of the method: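 JAK2 kinase domain expressed in baculovirus/Sf9 and glutathione-affinity purified. Compounds (final […]) pre-incubated 20 min with enzyme in 10 mM HEPES pH 7.5, MgCl2, NaCl, vanadate, 0.1% Tween 20.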

T2 sequence (P52333 822-1111 limits assumed): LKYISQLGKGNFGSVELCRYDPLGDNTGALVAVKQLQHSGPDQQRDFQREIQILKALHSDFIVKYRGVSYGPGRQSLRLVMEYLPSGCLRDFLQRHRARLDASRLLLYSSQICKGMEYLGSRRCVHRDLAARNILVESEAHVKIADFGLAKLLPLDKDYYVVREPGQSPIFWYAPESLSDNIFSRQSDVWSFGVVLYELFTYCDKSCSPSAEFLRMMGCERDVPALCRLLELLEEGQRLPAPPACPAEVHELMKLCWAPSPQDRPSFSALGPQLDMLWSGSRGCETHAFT
T1 sequence (O60674 whole entry, change not shown, the tested form may be a part): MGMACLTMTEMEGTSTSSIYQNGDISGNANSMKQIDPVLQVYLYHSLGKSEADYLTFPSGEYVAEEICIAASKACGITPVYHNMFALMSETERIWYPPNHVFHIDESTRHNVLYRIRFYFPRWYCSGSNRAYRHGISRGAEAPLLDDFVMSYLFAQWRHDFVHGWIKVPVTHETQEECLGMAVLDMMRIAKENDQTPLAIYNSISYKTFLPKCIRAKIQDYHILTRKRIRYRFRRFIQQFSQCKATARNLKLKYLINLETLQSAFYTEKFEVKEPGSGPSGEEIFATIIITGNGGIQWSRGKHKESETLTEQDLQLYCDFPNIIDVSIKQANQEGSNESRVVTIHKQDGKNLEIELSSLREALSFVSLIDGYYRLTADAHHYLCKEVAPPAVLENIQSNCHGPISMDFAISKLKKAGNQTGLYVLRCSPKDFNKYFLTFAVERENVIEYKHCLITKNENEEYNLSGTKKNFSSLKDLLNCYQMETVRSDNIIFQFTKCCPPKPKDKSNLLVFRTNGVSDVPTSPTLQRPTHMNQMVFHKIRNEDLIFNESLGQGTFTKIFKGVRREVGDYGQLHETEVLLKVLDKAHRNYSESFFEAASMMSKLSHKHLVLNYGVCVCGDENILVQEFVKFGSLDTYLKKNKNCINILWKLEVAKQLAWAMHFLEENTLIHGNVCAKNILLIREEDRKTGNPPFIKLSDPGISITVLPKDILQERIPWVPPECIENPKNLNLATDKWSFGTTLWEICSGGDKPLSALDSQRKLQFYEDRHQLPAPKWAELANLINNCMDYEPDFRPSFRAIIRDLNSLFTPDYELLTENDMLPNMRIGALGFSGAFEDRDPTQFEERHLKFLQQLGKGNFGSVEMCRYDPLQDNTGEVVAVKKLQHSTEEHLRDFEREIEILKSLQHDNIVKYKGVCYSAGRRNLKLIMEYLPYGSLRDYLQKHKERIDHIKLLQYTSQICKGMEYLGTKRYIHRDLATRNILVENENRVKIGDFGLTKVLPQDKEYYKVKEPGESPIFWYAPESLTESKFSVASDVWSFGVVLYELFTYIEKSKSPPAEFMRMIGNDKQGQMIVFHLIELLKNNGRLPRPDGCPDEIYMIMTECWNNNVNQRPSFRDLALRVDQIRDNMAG
T3 sequence (O60674 849-1124 limits assumed): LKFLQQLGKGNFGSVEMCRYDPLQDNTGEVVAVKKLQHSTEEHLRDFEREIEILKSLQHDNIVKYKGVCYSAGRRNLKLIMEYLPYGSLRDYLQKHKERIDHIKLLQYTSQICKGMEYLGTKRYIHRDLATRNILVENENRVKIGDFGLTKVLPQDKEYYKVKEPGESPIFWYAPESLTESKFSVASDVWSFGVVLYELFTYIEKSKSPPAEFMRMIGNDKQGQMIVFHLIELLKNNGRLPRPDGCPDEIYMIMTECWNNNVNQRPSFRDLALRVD

| Structure (SMILES) | IC50 (CTLL2) [µM] | GI50 [1] [µM] | IC50 (BaF3 wild-type cells) [µM] | IC50 (human JAK3) [µM] | IC50 (human JAK2) [µM] |
| --- | --- | --- | --- | --- | --- |
| Cc1cnc(Nc2ccc(N3CCOCC3)cc2)nc1Sc1ccc(NC(=O)/C(Br)=C\C(=O)O)cc1 [Compound 381, (E)-3-bromo-4-(4-(5-methyl-2-(4-morpholinophenylao)pyrimidin-4-ylthio)phenylao)-4-oxobut-2-enoic acid] | < 20 | > 20 | > 20 | < 0.5 | > 1 |
| Cc1cnc(Nc2ccc(N3CCOCC3)cc2)nc1Sc1ccc(NC(=O)/C=C/Cl)cc1 [Compound 343, (E)-3-chloro-N-(4-(5-methyl-2-(4-morpholinophenylao)pyrimidin-4-ylthio)phenyl)acrylamide] | < 5 | < 20 | < 20 | < 0.1 | > 1 |
| N#Cc1nccc(Sc2ccc(Sc3ccnc(Nc4ccc(N5CCOCC5)cc4)n3)cc2)n1 [Compound 154, 4-(4-(2-(4-morpholinophenylao)pyrimidin-4-ylthio)phenylthio)pyrimidine-2-carbonitrile] | < 5 | < 5 | < 5 | < 0.5 | > 1 |
| C=CC(=O)Nc1ccc(Sc2ccnc(Nc3cccc(S(=O)(=O)NCc4ccccc4)c3)n2)cc1 [Compound 366, N-(4-(2-(3-(N-benzylsulfamoyl)phenylao)pyrimidin-4-ylthio)phenyl)acrylamide] | < 5 | < 20 | < 20 | < 0.1 | > 1 |
| COc1cc(Sc2ccnc(Nc3ccc(N4CCOCC4)cc3)n2)ccc1N [Compound 117, 4-(4-ao-3-methoxyphenylthio)-N-(4-morpholinophenyl)pyrimidin-2-ae] | < 20 | < 20 | < 5 | < 0.5 | > 1 |
| Cc1cnc(Nc2ccc(N3CCOCC3)cc2)nc1Sc1ccc(NC(=O)CCC(=O)O)cc1 [Compound 383, 4-(4-(5-methyl-2-(4-morpholinophenylao)pyrimidin-4-ylthio)phenylao)-4-oxobutanoic acid] | < 20 | < 20 | < 20 | < 0.1 | < 0.5 |
